# From article PMC10816263, “Thermophilic PHP Protein Tyrosine Phosphatases (Cap8C and Wzb) from Mesophilic Bacteria” (International Journal of Molecular Sciences, 2024)
# What was measured:
# Wzb = molecular target: T1, Wzb (Lacticaseibacillus rhamnosus, UniProt Q58Z13); assay: p-nitrophenol release, absorbance […] nm; assay type: biochemical; details: 5 mM pNPP, 0.25 µM enzyme, 1.0 mM Co2+ (also Ni2+ or Mn2+), 92 mM Tris-HCl pH 7.5, 75 °C, 15 min
# T1 sequence (Q58Z13 1-254): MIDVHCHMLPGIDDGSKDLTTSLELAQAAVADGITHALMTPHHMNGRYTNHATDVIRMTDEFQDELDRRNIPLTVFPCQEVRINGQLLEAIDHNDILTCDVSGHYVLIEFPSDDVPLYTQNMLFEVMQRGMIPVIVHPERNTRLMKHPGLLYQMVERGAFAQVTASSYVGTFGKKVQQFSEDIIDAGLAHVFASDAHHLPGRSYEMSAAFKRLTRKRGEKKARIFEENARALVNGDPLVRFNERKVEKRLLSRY
# Cap8C = Cap8C (Staphylococcus aureus, UniProt P72369); assay: p-nitrophenol release, absorbance […] nm; assay type: biochemical; details: 5 mM pNPP, 0.25 µM enzyme, 1.0 mM Co2+ (also Ni2+ or Mn2+), 92 mM Tris-HCl pH 7.5, 75 °C, 15 min
# Chain of Cap8C (P72369 entry or part of it): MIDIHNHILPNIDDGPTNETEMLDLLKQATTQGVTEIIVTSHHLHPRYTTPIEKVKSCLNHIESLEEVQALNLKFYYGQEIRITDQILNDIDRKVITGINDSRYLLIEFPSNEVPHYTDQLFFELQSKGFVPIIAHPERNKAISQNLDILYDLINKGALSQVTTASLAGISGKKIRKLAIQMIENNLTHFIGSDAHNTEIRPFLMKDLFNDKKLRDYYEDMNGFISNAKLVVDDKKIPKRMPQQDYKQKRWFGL
compound,measurement,setting,value
O=[N+]([O-])c1ccc(OP(=O)(O)O)cc1 [p-nitrophenylphosphate],"p-nitrophenol release, absorbance 405 nm",Wzb,Lactobacillus rhamnosus Wzb proteins were established to have phosphatase activity using pNPP as substrate
same,"p-nitrophenol release, absorbance 405 nm",Cap8C,Cap8C and Lactobacillus rhamnosus Wzb proteins were established to have phosphatase activity using pNPP
